The structures appear in SMILES notation.

For 31 compounds, IC50 results are on record in patent US11192891B2, “Diazaspiro ROCK inhibitors” (BRISTOL-MYERS SQUIBB COMPANY, priority 2017, dated 2021).

ROCK2, sequence (O75116 whole entry, species assumed): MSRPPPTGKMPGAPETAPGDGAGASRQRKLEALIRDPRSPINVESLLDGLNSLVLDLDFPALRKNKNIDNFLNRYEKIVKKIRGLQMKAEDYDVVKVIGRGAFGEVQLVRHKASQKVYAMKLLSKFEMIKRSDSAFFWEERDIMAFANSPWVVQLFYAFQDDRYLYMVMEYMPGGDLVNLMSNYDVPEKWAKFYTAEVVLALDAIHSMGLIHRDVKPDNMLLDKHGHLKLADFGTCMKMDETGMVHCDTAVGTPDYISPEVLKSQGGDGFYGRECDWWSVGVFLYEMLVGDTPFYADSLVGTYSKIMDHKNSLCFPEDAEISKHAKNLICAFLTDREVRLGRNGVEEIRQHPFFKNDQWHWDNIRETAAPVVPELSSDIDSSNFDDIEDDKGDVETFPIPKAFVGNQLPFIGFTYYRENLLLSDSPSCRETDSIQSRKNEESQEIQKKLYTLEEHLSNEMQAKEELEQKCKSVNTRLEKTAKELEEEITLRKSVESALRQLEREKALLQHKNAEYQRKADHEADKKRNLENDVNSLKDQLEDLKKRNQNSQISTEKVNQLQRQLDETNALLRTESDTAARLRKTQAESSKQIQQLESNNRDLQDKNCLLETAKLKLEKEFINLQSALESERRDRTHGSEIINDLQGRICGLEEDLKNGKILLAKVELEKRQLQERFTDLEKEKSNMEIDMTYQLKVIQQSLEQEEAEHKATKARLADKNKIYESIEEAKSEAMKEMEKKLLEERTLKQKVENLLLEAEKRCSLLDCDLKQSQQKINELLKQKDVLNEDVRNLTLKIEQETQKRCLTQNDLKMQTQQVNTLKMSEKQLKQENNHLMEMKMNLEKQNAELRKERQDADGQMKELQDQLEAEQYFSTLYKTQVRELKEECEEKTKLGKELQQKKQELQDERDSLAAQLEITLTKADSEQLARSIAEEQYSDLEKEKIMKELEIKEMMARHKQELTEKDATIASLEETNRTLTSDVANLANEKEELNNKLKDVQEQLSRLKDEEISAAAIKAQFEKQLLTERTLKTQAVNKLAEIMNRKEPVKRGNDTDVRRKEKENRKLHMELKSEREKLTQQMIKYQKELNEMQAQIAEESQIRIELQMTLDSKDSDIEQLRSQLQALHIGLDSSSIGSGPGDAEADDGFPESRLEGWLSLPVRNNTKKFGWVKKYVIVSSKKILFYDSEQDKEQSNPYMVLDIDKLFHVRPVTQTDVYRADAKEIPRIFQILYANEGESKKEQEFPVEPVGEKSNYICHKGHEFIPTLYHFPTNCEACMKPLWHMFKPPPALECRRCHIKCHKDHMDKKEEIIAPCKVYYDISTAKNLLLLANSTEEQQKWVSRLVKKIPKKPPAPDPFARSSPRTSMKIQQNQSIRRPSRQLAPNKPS

This assay addresses ROCK2 (Homo sapiens, UniProt O75116). Nature of the assay: ROCK kinase inhibition assay, FITC peptide substrate, LABCHIP 3000 readout. It counts as biochemical. The conditions noted are these: 5 μM ATP, 1.5 μM peptide substrate. In a few lines:
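Rho kinase variants started the reaction with compound present (DMSO <2%); after incubation, EDTA stop, and phosphorylated and non-phosphorylated peptide separated by microfluidic electrophoresis. Dose-response format, inhibition calculated at each concentration.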
One may read the IC50 as the concentration needed to halve the response being measured. The low end stands for greater potency, the high end for weaker potency. Compound `COc1cc(N2CCC3(CCN(C(=O)c4ccno4)CC3)C2=O)ccc1-c1cn[nH]c1` [Example 97, 2-[3-methoxy-4-(1H-pyrazol-4-yl)phenyl]-8-(1,2-oxazole-5-carbonyl)-2,8-diazaspiro[4.5]decan-1-one] had an IC50 of 427 nM. As for `COc1cc(N2CCC3(CCN(C(=O)c4ccc5c(c4)nc(C)n5C)CC3)C2=O)ccc1-c1cn[nH]c1` [Example 179, 8-(1,2-dimethyl-1H-1,3-benzodiazole-5-carbonyl)-2-[3-methoxy-4-(1H-pyrazol-4-yl)phenyl]-2,8-diazaspiro[4.5]decan-1-one], half-maximal inhibition (IC50) was put at 2.3 nM. `CN1CCN(c2ccc(C(=O)N3CCC4(CC3)CCN(c3ccc(-c5ccnc(N)c5)cc3)C4=O)cc2)CC1` [Example 36, 2-[4-(2-aminopyridin-4-yl)phenyl]-8-[4-(4-methylpiperazin-1-yl)benzoyl]-2,8-diazaspiro[4.5]decan-1-one] yielded a half-inhibitory concentration (IC50) of 2 nM. As for `COc1cc(N2CCC3(CCN(C(=O)c4cn5nc[nH]c(=O)c5c4C)CC3)C2=O)ccc1-c1cn[nH]c1` [Example 133, 2-[3-methoxy-4-(1H-pyrazol-4-yl)phenyl]-8-{5-methyl-4-oxo-3H,4H-pyrrolo[2,1-f][1,2,4]triazine-6-carbonyl}-2,8-diazaspiro[4.5]decan-1-one], the figure is 88 nM. Next, `COc1cc(N2CCC3(CCN(C(=O)c4ccc5cc6n(c5c4)C(C)CNC6=O)CC3)C2=O)ccc1-c1cn[nH]c1` (stereo not shown) [Example 150, 2-[3-methoxy-4-(1H-pyrazol-4-yl)phenyl]-8-{4-methyl-1-oxo-1H,2H,3H,4H-pyrazino[1,2-a]indole-7-carbonyl}-2,8-diazaspiro[4.5]decan-1-one]: 144 nM; `COc1cc(N2CCC3(CCN(C(=O)c4ccc(N5CCN(Cc6nc7ccccc7s6)CC5)cc4)CC3)C2=O)ccc1-c1cn[nH]c1` [Example 229, 8-(4-{4-[(1,3-benzothiazol-2-yl)methyl]piperazin-1-yl}benzoyl)-2-[3-methoxy-4-(1H-pyrazol-4-yl)phenyl]-2,8-diazaspiro[4.5]decan-1-one]: 1.9 nM. The compound `COc1cc(N2CCC3(CCN(C(=O)C4Cc5ccccc5O4)CC3)C2=O)ccc1-c1cn[nH]c1` (stereo not shown) [Example 102, 8-(2,3-dihydro-1-benzofuran-2-carbonyl)-2-[3-methoxy-4-(1H-pyrazol-4-yl)phenyl]-2,8-diazaspiro[4.5]decan-1-one] gave an IC50 of 1970 nM. This IC50 is about 1000-fold higher than that of the compound before. As for `COc1cc(N2CCC3(CCN(C(=O)c4cccn4C)CC3)C2=O)ccc1-c1cn[nH]c1` [Example 62, 2-[3-methoxy-4-(1H-pyrazol-4-yl)phenyl]-8-(1-methyl-1H-pyrrole-2 carbonyl)-2,8-diazaspiro[4.5]decan-1-one], the figure is 1430 nM.

In turn, `COc1cc(OC)c(C(=O)N2CCC3(CC2)CCN(c2ccc(-c4cn[nH]c4)c(OC)c2)C3=O)c(OC)c1` [Example 29, 2-[3-methoxy-4-(1H-pyrazol-4-yl)phenyl]-8-(2,4,6-trimethoxybenzoyl)-2,8-diazaspiro[4.5]decan-1-one] came in with an IC50 of 336 nM.

In turn, `COc1cc(N2CCC3(CCN(C(=O)c4cc(C(F)(F)F)n(C)n4)CC3)C2=O)ccc1-c1cn[nH]c1` [Example 107, 2-[3-methoxy-4-(1H-pyrazol-4-yl)phenyl]-8-[1-methyl-S-(trifluoromethyl)-1H-pyrazole-3-carbonyl]-2,8-diazaspiro[4.5]decan-1-one] came in with an IC50 of 67 nM. Take `CN1CCN(c2ccc(C(=O)N3CCC4(CC3)CCN(c3cccc(-c5ccc6cn[nH]c6c5)c3)C4=O)cc2)CC1` [Example 49, 2-[3-(1H-indazol-6-yl)phenyl]-8-[4-(4-methylpiperazin-1-yl)benzoyl]-2,8-diazaspiro[4.5]decan-1-one]: the IC50 was 6.8 nM. This IC50 is about 9.9-fold lower than that of the compound before. As for `CN1CCN(c2ccc(C(=O)N3CCC4(CC3)CCN(c3ccc(-c5ccncc5F)cc3)C4=O)cc2)CC1` [Example 33, 2-[4-(3-fluoropyridin-4-yl)phenyl]-8-[4-(4-methylpiperazin-1-yl)benzoyl]-2,8-diazaspiro[4.5]decan-1-one], the figure is 1.3 nM. `CN1CCN(c2ccc(C(=O)N3CCC4(CC3)CCN(c3ccc(-c5ccnc6[nH]ccc56)cc3)C4=O)cc2)CC1` [Example 35, 8-[4-(4-methylpiperazin-1-yl)benzoyl]-2-(4-{1H-pyrrolo[2,3-b]pyridin-4-yl}phenyl)-2,8-diazaspiro[4.5]decan-1-one] registered an IC50 of 0.3 nM. `COc1cc(N2CCC3(CCN(C(=O)c4ccc(N5CCN(Cc6cnc7ccccc7n6)CC5)cc4)CC3)C2=O)ccc1-c1cn[nH]c1` [Example 219, 2-[3-methoxy-4-(1H-pyrazol-4-yl)phenyl]-8-(4-{4-[(quinoxalin-2-yl)methyl]piperazin-1-yl}benzoyl)-2,8-diazaspiro[4.5]decan-1-one]: the IC50 was 1.9 nM. As for `COc1ccc(C(=O)N2CCC3(CC2)CCN(c2ccc(-c4cn[nH]c4)c(OC)c2)C3=O)c(OCc2ccccc2)c1` [Example 184, 8-[2-(benzyloxy)-4-methoxybenzoyl]-2-[3-methoxy-4-(1H-pyrazol-4-yl)phenyl]-2,8-diazaspiro[4.5]decan-1-one], the figure is 12 nM; as for `COc1cc(N2CCC3(CCN(C(=O)c4ccc(C(C)C)cc4)CC3)C2=O)ccc1-c1cn[nH]c1` [Example 92, 2-[3-methoxy-4-(1H-pyrazol-4-yl)phenyl]-8-[4-(propan-2-yl)benzoyl]-2,8-diazaspiro[4.5]decan-1-one], 12 nM. For the compound `COc1cc(N2CCC3(CCN(C(=O)c4ccc(Br)cc4)CC3)C2=O)ccc1-c1cn[nH]c1` [Example 195, 8-(4-bromobenzoyl)-2-[3-methoxy-4-(1H-pyrazol-4-yl)phenyl]-2,8-diazaspiro[4.5]decan-1-one], the IC50 came to 33 nM. Next, `COc1cc(N2CCC3(CCN(C(=O)c4cscn4)CC3)C2=O)ccc1-c1cn[nH]c1` [Example 86, 2-[3-methoxy-4-(1H-pyrazol-4-yl)phenyl]-8-(1,3-thiazole-4-carbonyl)-2,8-diazaspiro[4.5]decan-1-one]: 443 nM; `COc1cc(N2CCC3(CCN(C(=O)c4cccc5[nH]cnc45)CC3)C2=O)ccc1-c1cn[nH]c1` [Example 197, 8-(1H-1,3-benzodiazole-4-carbonyl)-2-[3-methoxy-4-(1H-pyrazol-4-yl)phenyl]-2,8-diazaspiro[4.5]decan-1-one]: 61 nM; `CN1CCN(c2ccc(C(=O)N3CCC4(CC3)CCN(c3ccc(-c5ccc6cn[nH]c6c5)cc3)C4=O)cc2)CC1` [Example 34, 2-[4-(1H-indazol-6-yl)phenyl]-8-[4-(4-methylpiperazin-1-yl)benzoyl]-2,8-diazaspiro[4.5]decan-1-one]: 106 nM. As for `COc1cc(N2CCC3(CCN(C(=O)c4ccc(N5CCN(CC(C)(C)C)CC5)cc4)CC3)C2=O)ccc1-c1cn[nH]c1` [Example 241, 8-{4-[4-(2,2-dimethylpropyl)piperazin-1-yl]benzoyl}-2-[3-methoxy-4-(1H-pyrazol-4-yl)phenyl]-2,8-diazaspiro[4.5]decan-1-one], the midpoint of inhibition, the IC50, lay at 0.4 nM. This IC50 is about 260-fold lower than that of the compound before. `COc1cc(N2CCC3(CCN(C(=O)c4ccc(C(N)=O)cc4)CC3)C2=O)ccc1-c1cn[nH]c1` [Example 181, 4-{2-[3-methoxy-4-(1H-pyrazol-4-yl)phenyl]-1-oxo-2,8-diazaspiro[4.5]decane-8-carbonyl}benzamide]: 35 nM corresponded to half-maximal inhibition (IC50). In turn, `COc1cc(N2CCC3(CCN(C(=O)c4ccc(N5CCN(Cc6ccc(-n7ccnc7)cc6)CC5)cc4)CC3)C2=O)ccc1-c1cn[nH]c1` [Example 220, 8-[4-(4-{[4-(1H-imidazol-1-yl)phenyl]methyl}piperazin-1-yl)benzoyl]-2-[3-methoxy-4-(1H-pyrazol-4-yl)phenyl]-2,8-diazaspiro[4.5]decan-1-one] registered an IC50 of 0.3 nM.

With `COc1ccc(C(=O)N2CCC3(CC2)CCN(c2ccc(-c4cn[nH]c4)c(OC)c2)C3=O)cc1F` [Example 14, 8-(3-fluoro-4-methoxybenzoyl)-2-[3-methoxy-4-(1H-pyrazol-4-yl)phenyl]-2,8-diazaspiro[4.5]decan-1-one], half-maximal inhibition (IC50) was put at 8 nM.

In the case of `COc1cc(N2CCC3(CCN(C(=O)c4cc5ccccc5s4)CC3)C2=O)ccc1-c1cn[nH]c1` [Example 76, 8-(1-benzothiphene-2-carbonyl)-2-[3-methoxy-4-(1H-pyrazol-4-yl)phenyl]-2,8-diazaspiro[4.5]decan-1-one], the IC50 is 27 nM. Against the preceding compound, the IC50 is about 3.4-fold higher. As for `COc1cc(N2CCC3(CCN(C(=O)c4ccc(-c5cnco5)cc4)CC3)C2=O)ccc1-c1cn[nH]c1` [Example 160, 2-[3-methoxy-4-(1H-pyrazol-4-yl)phenyl]-8-[4-(1,3-oxazol-5-yl)benzoyl]-2,8-diazaspiro[4.5]decan-1-one], the figure is 23 nM; as for `COc1cc(N2CCC3(CCN(C(=O)c4cc5ccccc5[nH]4)CC3)C2=O)ccc1-c1cn[nH]c1` [Example 68, 8-(1H-indole-2-carbonyl)-2-[3-methoxy-4-(1H-pyrazol-4-yl)phenyl]-2,8-diazaspiro[4.5]decan-1-one], 467 nM; as for `COc1cc(F)ccc1C(=O)N1CCC2(CC1)CCN(c1ccc(-c3cn[nH]c3)cc1)C2=O` [Example 9, 8-(4-fluoro-2-methoxybenzoyl)-2-[4-(1H-pyrazol-4-yl)phenyl]-2,8-diazaspiro[4.5]decan-1-one], 241 nM. As for `COc1cc(N2CCC3(CCN(C(=O)c4nnc(-c5ccccn5)[nH]c4=O)CC3)C2=O)ccc1-c1cn[nH]c1` [Example 125, 2-[3-methoxy-4-(1H-pyrazol-4-yl)phenyl]-8-[5-oxo-3-(pyridin-2-yl)-4,5-dihydro-1,2,4-triazine-6-carbonyl]-2,8-diazaspiro[4.5]decan-1-one], the IC50 stood at 26 nM. As for `COc1ccc(S(=O)(=O)N2CCC3(CCN(c4ccc(-c5cn[nH]c5)c(OC)c4)C3=O)CC2)cc1F` [Example 212, 8-(3-fluoro-4-methoxybenzenesulfonyl)-2-[3-methoxy-4-(1H-pyrazol-4-yl)phenyl]-2,8-diazaspiro[4.5]decan-1-one], the figure is 285 nM; as for `COc1cc(N2CCC3(CCN(C(=O)[C@@H]4C[C@H]4c4ccccc4)CC3)C2=O)ccc1-c1cn[nH]c1` [Example 91, 2-[3-methoxy-4-(1H-pyrazol-4-yl)phenyl]-8-[(1R,2R)-2-phenylcyclopropanecarbonyl]-2,8-diazaspiro[4.5]decan-1-one], 436 nM.
